Test results: US12077537B2 (Gilead Sciences, Inc., priority 2020, dated 2024)

The compounds below were run on HIV-IIIb (assay: Antiviral assay in MT4 cells). Settings: Human immunodeficiency virus 1, MT4, 120 h; MT-4 cells mixed with HIV-IIIb at m.o.i. 0.003; 5 days at 37° C.; CellTiter-Glo luminescence; 50% decrease in signal, a measure of HIV-1 replication.
Format: cell-based
Procedure: Antiviral Assay in MT4 Cells For the antiviral assay, 40 μL of a concentration required to achieve a final effective 1× test concentration of 3-fold serially diluted compound in culture medium with 10% FBS was added to each well of a 384-well plate (10 concentrations) in quadruplicate. MT-4 cells were next mixed with HIV-IIIb at an m.o.i of 0.003 for 1 hour, after which time 35 μL of virus/cell mixture (2000 cells) was immediately added to each well containing 40 μL of diluted compound. The plates were then incubated at 37° C. for 5 days. After 5 days of incubation, 25 μl of 2× concentrated CellTiter-Glom Reagent (catalog #G7571, Promega Biosciences, Inc., Madison, WI) was added to each well containing MT-4 cells. Cell lysis was carried out by incubating at room temperature for 10 min and then chemiluminescence was read.

First: Cn1nc(NS(=O)(=O)C2CC2)c2cccc(-c3cc4sc(NCC(C)(C)O)nc4nc3[C@H](Cc3cc(F)cc(F)c3)NC(=O)Cn3nc(C(F)F)c4c3C(F)(F)[C@@H]3C[C@H]43)c21 [Compound 62, N—((S)-1-(6-(3-(cyclopropanesulfonamido)-1-methyl-1H-indazol-7-yl)-2-((2-hydroxy-2-methylpropyl)amino)thiazolo[4,5-b]pyridin-5-yl)-2-(3,5-difluorophenyl)ethyl)-2-((3bS,4aR)-3-(difluoromethyl)-5,5-difluoro-3b,4,4a,5-tetrahydro-1H-cyclopropa[3,4]cyclopenta[1,2-c]pyrazol-1-yl)acetamide]
Second: Cn1nc(NS(C)(=O)=O)c2c(Cl)ccc(-c3cc4sc(O)nc4nc3[C@H](Cc3cc(F)cc(F)c3)NC(=O)Cn3nc(C(F)F)c4c3C(F)(F)[C@@H]3C[C@H]43)c21 [Example 112, N—((S)-1-(6-(4-chloro-1-methyl-3-(methylsulfonamido)-1H-indazol-7-yl)-2-hydroxythiazolo[4,5-b]pyridin-5-yl)-2-(3,5-difluorophenyl)ethyl)-2-((3bS,4aR)-3-(difluoromethyl)-5,5-difluoro-3b,4,4a,5-tetrahydro-1H-cyclopropa[3,4]cyclopenta[1,2-c]pyrazol-1-yl)acetamide]
The EC50 of the first is 2.1-fold higher: 7.9 nM for the first, 3.8 nM for the second.

Compared with `Cn1nc(NS(C)(=O)=O)c2c(Cl)ccc(-c3cc4c(nc3[C@H](Cc3cc(F)cc(F)c3)NC(=O)Cn3nc(C(F)(F)F)c5c3C(F)(F)[C@@H]3C[C@H]53)NCC(=O)N4)c21` [Example 107, N—((S)-1-(7-(4-chloro-1-methyl-3-(methylsulfonamido)-1H-indazol-7-yl)-2-oxo-1,2,3,4-tetrahydropyrido[2,3-b]pyrazin-6-yl)-2-(3,5-difluorophenyl)ethyl)-2-((3bS,4aR)-5,5-difluoro-3-(trifluoromethyl)-3b,4,4a,5-tetrahydro-1H-cyclopropa[3,4]cyclopenta[1,2-c]pyrazol-1-yl)acetamide], `Cn1nc(NS(C)(=O)=O)c2c(Cl)ccc(-c3cc4[nH]c(C5CC5)nc4nc3[C@H](Cc3cc(F)cc(F)c3)NC(=O)Cn3nc(C(F)F)c4c3C(F)(F)[C@@H]3C[C@H]43)c21` [Example 97, N—((S)-1-(6-(4-chloro-1-methyl-3-(methylsulfonamido)-1H-indazol-7-yl)-2-cyclopropyl-1H-imidazo[4,5-b]pyridin-5-yl)-2-(3,5-difluorophenyl)ethyl)-2-((3bS,4aR)-3-(difluoromethyl)-5,5-difluoro-3b,4,4a,5-tetrahydro-1H-cyclopropa[3,4]cyclopenta[1,2-c]pyrazol-1-yl)acetamide] is 14-fold lower in EC50: 42.2 nM for the first, 3.1 nM for the second. The second is the more potent here.

Compared with `Cn1nc(NS(C)(=O)=O)c2cccc(-c3cc4sc(NC5CNC(=O)C5)nc4nc3C(Cc3cc(F)cc(F)c3)NC(=O)Cn3nc(C(F)(F)F)c4c3C(F)(F)[C@@H]3C[C@H]43)c21` (stereo partly drawn) [Example 128, 2-((3bS,4aR)-5,5-difluoro-3-(trifluoromethyl)-3b,4,4a,5-tetrahydro-1H-cyclopropa[3,4]cyclopenta[1,2-c]pyrazol-1-yl)-N-(2-(3,5-difluorophenyl)-1-(6-(1-methyl-3-(methylsulfonamido)-1H-indazol-7-yl)-2-((5-oxopyrrolidin-3-yl)amino)thiazolo[4,5-b]pyridin-5-yl)ethyl)acetamide], `Cn1nc(NS(C)(=O)=O)c2cccc(-c3cc4sc(N5CC6(CCNCC6)C5)nc4nc3[C@H](Cc3cc(F)cc(F)c3)NC(=O)Cn3nc(C(F)(F)F)c4c3C(F)(F)[C@@H]3C[C@H]43)c21` [Example 91, 2-((3bS,4aR)-5,5-difluoro-3-(trifluoromethyl)-3b,4,4a,5-tetrahydro-1H-cyclopropa[3,4]cyclopenta[1,2-c]pyrazol-1-yl)-N—((S)-2-(3,5-difluorophenyl)-1-(6-(1-methyl-3-(methylsulfonamido)-1H-indazol-7-yl)-2-(2,7-diazaspiro[3.5]nonan-2-yl)thiazolo[4,5-b]pyridin-5-yl)ethyl)acetamide] is 5.3-fold lower in EC50: 342 nM for the first, 64.9 nM for the second.

Compared with `CC(C)(O)C#CC1(Cl)Nc2nc(C(Cc3cc(F)cc(F)c3)NC(=O)Cn3nc(C(F)F)c4c3C(F)(F)CCC4(F)F)c(-c3ccc(F)c(C(N)=O)c3)cc2S1` (stereo not drawn) [Compound 22, 5-(2-chloro-5-(1-(2-(3-(difluoromethyl)-4,4,7,7-tetrafluoro-4,5,6,7-tetrahydro-1H-indazol-1-yl)acetamido)-2-(3,5-difluorophenyl)ethyl)-2-(3-hydroxy-3-methylbut-1-yn-1-yl)-2,3-dihydrothiazolo[4,5-b]pyridin-6-yl)-2-fluorobenzamide], `CC(C)(O)CNc1nc2nc([C@H](Cc3cc(F)cc(F)c3)NC(=O)Cn3nc(C(F)F)c4c3C(F)(F)CCC4(F)F)c(-c3ccc(F)c(C(N)=O)c3)cc2s1` [Compound 6, (S)-5-(5-(1-(2-(3-(difluoromethyl)-4,4,7,7-tetrafluoro-4,5,6,7-tetrahydro-1H-indazol-1-yl)acetamido)-2-(3,5-difluorophenyl)ethyl)-2-((2-hydroxy-2-methylpropyl)amino)thiazolo[4,5-b]pyridin-6-yl)-2-fluorobenzamide] is 1.9-fold lower in EC50: 184 nM for the first, 98.6 nM for the second. The second is the more potent here.

First: Cn1nc(NS(C)(=O)=O)c2cccc(-c3cc4[nH]c(-c5ccccc5)cc4nc3[C@H](Cc3cc(F)cc(F)c3)NC(=O)Cn3nc(C(F)F)c4c3C3CC3CC4)c21 (stereo partly drawn) [Example 122, 2-(3-(difluoromethyl)-5,5a,6,6a-tetrahydrocyclopropa[g]indazol-1(4H)-yl)-N—((S)-2-(3,5-difluorophenyl)-1-(6-(1-methyl-3-(methylsulfonamido)-1H-indazol-7-yl)-2-phenyl-1H-pyrrolo[3,2-b]pyridin-5-yl)ethyl)acetamide]
Second: COCc1nc2nc([C@H](Cc3cc(F)cc(F)c3)NC(=O)Cn3nc(C(F)F)c4c3C(F)(F)[C@@H]3C[C@H]43)c(-c3ccc(Cl)c4c(NS(C)(=O)=O)nn(C)c34)cc2[nH]1 [Example 102, N—((S)-1-(6-(4-chloro-1-methyl-3-(methylsulfonamido)-1H-indazol-7-yl)-2-(methoxymethyl)-1H-imidazo[4,5-b]pyridin-5-yl)-2-(3,5-difluorophenyl)ethyl)-2-((3bS,4aR)-3-(difluoromethyl)-5,5-difluoro-3b,4,4a,5-tetrahydro-1H-cyclopropa[3,4]cyclopenta[1,2-c]pyrazol-1-yl)acetamide]
The EC50 of the first is 8.2-fold higher: 12.3 nM for the first, 1.5 nM for the second. The second is the more potent here.

Going from `NC(=O)c1cc(-c2cc3sc(N4CC5(COC5)C4)nc3nc2[C@H](Cc2cc(F)cc(F)c2)NC(=O)Cn2nc(C(F)F)c3c2C(F)(F)CCC3(F)F)ccc1F` [Compound 13, (S)-5-(5-(1-(2-(3-(difluoromethyl)-4,4,7,7-tetrafluoro-4,5,6,7-tetrahydro-TH-indazol-1-yl)acetamido)-2-(3,5-difluorophenyl)ethyl)-2-(2-oxa-6-azaspiro[3.3]heptan-6-yl)thiazolo[4,5-b]pyridin-6-yl)-2-fluorobenzamide] to `O=C(Cn1nc(C(F)(F)F)c2c1C(F)(F)[C@@H]1C[C@H]21)N[C@@H](Cc1cc(F)cc(F)c1)c1nc2nc(N3CCN(C4COC4)CC3)sc2cc1-c1ccc2c(c1)C(=O)NC2` [Compound 38, 2-((3bS,4aR)-5,5-difluoro-3-(trifluoromethyl)-3b,4,4a,5-tetrahydro-1H-cyclopropa[3,4]cyclopenta[1,2-c]pyrazol-1-yl)-N—((S)-2-(3,5-difluorophenyl)-1-(2-(4-(oxetan-3-yl)piperazin-1-yl)-6-(3-oxoisoindolin-5-yl)thiazolo[4,5-b]pyridin-5-yl)ethyl)acetamide], the EC50 falls from 126 nM to 10.1 nM (12-fold). The second is the more potent here.
